In series [1] the target is T1, P-gp (MDR1) (Homo sapiens, UniProt P08183). Description: Bi-directional transport (monolayer efflux) study across MDCK-MDR1 cell monolayers. As to conditions: human, HPS conditions; for Papp A→B / Papp B→A: recovery-corrected mean ± SD, n = 3; for recovery: MDCK-MDR1 cell monolayers.
Experimental: (§1) As such, for this study, MDCK-II-MDR1 cells transfected with human MDR1 for P-gp expression were obtained from The Netherlands Cancer Institute (Amsterdam, The Netherlands).
(§2) For transport experiments, MDCK-MDR1 cells were used between passages 20 and 40. Cells were seeded onto 12-well PET inserts (CellQART, Northeim, Germany; pore size: 0.4 µm; filter thickness: 11.5 µm) at a density of 1.5 × 10^5 cells/insert. Inserts with a high porosity of 100 × 10^6 pores/cm ​^2 or low porosity of 2 × 10 ​^6 pores/cm ​^2 were used. After seeding, cells were maintained as described in Section 3.1.2 for 4 days to ensure confluent cell monolayer formation. The cell medium was exchanged one day before the transport experiments were performed. Prior to the transport experiments, the inserts were washed with Hank’s balanced salt solution (HBSS) to remove residual DMEM. […] For all other inserts, no inhibitor was used.
(§3) The apical-to-basolateral ( A→B direction) as well as the basolateral-to-apical ( B→A direction) transport rates of the test compounds were determined in duplicate with varying stirring and filter conditions. The three conditions tested were as follows: high-porosity filters, stirred (HPS); high-porosity filters, unstirred (HPU); and low-porosity filters, stirred (LPS). The transport buffer was HBSS with 25 mM HEPES at pH 7.4. Stock solutions were prepared in the transport buffer, and all solutions were pre-warmed to 37 °C. […] The pHs of the buffer and stock solutions prior to the experiment as well as the pHs of all samples after experiment completion were controlled with a rapid pH automated pH meter (Hudson Robotics, Inc., Springfield, NJ, USA). The pHs remained within a range of ±0.15.
(§4) Inserts were used in 12-well plates (TPP Techno Plastic Products AG, Trasadingen, Switzerland), the basolateral compartment volume was 1.6 mL, and the apical compartment volume was 0.5 mL. The transport experiments were initiated by replacing the HBSS with transport buffer and the test compound solution.
(§5) For measurement of transport in the A→B direction: Inserts were placed in 12-well plates containing transport buffer in the basolateral compartment, after which, the test compound solution was added to the apical compartment. At every sampling step, each insert was placed into a new well containing fresh, warmed assay buffer, and the old buffer was sampled. Sampling occurred at four consistent time intervals.
(§6) For measurement of transport in the B→A direction: Inserts were placed in 12-well plates containing the test compound solution in the basolateral compartment (donor), after which, transport buffer was added to the apical compartment. At each sampling time step, 300 μ L was sampled from the apical compartment (the maximum amount that could be removed without disturbing the cell layer) and replaced with an equal volume of warmed, fresh transport buffer. Sampling occurred at four consistent time intervals. Time intervals for sampling were determined uniquely for each compound and direction measured to ensure that sink conditions would be maintained throughout the experiment.
The target in series [2] is T2, human P-gp (Homo sapiens, UniProt P08183). The description is as above. As to conditions: for ER: HPS conditions.
Experimental: as §1, §2, §3, §4, §5, §6
Series [3] deals with T2, human P-gp. The settings on record: MDCK-MDR1, pH 7.4.
Experimental: as §1, §2, §3, §4, §5, §6
Series [4] has as its target T1, P-gp (MDR1). The series can be described thus: in vitro. As to conditions: for efflux ratio: MDCK-MDR1, pH 7.4, ER (Papp,B→A over Papp,A→B); for efflux ratio / Papp A→B / Papp B→A: pH 7.4 ISO-pH, 12 μM (loperamide 10 μM); for Papp A→B: MDCK-MDR1, pH 7.4, Papp,A→B; for Papp A→B / Papp B→A: recovery-corrected mean ± SD; for Papp B→A: MDCK-MDR1, pH 7.4, Papp,B→A; for recovery: pH 7.4, Recovery, pH 7.4, MDCK-MDR1, 12 μM (loperamide 10 μM).
Experimental: as §1, §2, §3, §4, §5, §6

Setting [5] is: HPS: high-porosity filter, stirred.
Setting [6] is: HPU: high-porosity filter, unstirred.
Setting [7] is: LPS: low-porosity filter, stirred.

We go through 3 compounds from paper PMC11154460, “Effects of Aqueous Boundary Layers and Paracellular Transport on the Efflux Ratio as a Measure of Active Transport Across Cell Layers” (Pharmaceutics, 2024).

Read-outs that look alike come from different tables or passages of the source.

T1 sequence (P08183 whole entry): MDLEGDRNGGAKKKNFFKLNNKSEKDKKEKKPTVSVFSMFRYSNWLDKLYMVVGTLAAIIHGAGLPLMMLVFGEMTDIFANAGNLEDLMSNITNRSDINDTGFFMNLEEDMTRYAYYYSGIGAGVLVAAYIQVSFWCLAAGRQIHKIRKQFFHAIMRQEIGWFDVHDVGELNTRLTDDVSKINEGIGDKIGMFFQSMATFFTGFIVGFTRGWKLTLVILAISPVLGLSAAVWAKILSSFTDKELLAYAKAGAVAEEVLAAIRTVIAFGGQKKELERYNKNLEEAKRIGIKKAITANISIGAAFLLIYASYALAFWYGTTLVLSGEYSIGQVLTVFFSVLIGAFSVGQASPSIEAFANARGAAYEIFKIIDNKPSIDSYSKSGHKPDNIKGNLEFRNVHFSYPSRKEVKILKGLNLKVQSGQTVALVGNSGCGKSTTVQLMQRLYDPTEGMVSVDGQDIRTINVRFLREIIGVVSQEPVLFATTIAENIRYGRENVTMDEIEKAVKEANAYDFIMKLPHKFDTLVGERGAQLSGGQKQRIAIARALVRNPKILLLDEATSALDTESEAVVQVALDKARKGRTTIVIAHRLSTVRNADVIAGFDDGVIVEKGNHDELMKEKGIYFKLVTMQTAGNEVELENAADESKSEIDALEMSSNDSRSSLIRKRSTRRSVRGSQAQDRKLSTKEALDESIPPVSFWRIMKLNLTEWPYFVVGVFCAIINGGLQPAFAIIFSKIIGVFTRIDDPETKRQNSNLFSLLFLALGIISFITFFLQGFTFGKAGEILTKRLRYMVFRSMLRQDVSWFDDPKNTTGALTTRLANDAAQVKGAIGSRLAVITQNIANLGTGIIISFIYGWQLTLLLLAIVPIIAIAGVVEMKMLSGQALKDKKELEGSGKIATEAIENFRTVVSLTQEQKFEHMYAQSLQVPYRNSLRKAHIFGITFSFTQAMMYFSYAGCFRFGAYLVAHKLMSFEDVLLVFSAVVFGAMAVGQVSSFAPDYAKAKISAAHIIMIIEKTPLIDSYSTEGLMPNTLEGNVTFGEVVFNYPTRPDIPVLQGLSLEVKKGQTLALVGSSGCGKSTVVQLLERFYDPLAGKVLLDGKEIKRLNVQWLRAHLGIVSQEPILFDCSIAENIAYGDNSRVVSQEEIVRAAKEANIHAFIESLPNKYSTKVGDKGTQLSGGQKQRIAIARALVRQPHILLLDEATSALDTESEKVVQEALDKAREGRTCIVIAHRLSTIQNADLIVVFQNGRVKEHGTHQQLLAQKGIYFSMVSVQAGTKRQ
T2 sequence (P08183 whole entry): as above

In the case of `COc1cccc2c1C(=O)c1c(O)c3c(c(O)c1C2=O)C[C@@](O)(C(=O)CO)C[C@@H]3O[C@H]1C[C@H](N)[C@H](O)[C@H](C)O1` [Doxorubicin, doxorubicin], at P-gp (MDR1) [1] (MDCK-MDR1, pH 6, ER, pHext 6 (ISO-pH)), the efflux ratio (as a rule, a quotient of directional permeabilities that is used to spot active efflux) amounted to 1.6. The Papp A→B (as a rule, how fast a substance crosses the layer from the apical side) came out at 1.4 ± 0.4 nm/s on P-gp (MDR1) [1] (MDCK-MDR1, pH 6, Papp,A→B, pHext 6 (ISO-pH)) and 1.2 ± 0.3 nm/s on P-gp (MDR1) [1] (MDCK-MDR1, pH 7, Papp,A→B, pHext 7 (ISO-pH)). Also, the apparent permeability from basolateral to apical (Papp B→A) (usually how fast a substance crosses the layer from the basolateral side) was determined as 2.3 ± 0.8 nm/s at P-gp (MDR1) [1] (MDCK-MDR1, pH 6, Papp,B→A, pHext 6 (ISO-pH)) and 7.8 ± 3.6 nm/s at P-gp (MDR1) [1] (MDCK-MDR1, pH 7, Papp,B→A, pHext 7 (ISO-pH)). Moreover, the recovery at P-gp (MDR1) [1] (pH 6, Recovery, pHext 6 (ISO-pH)) was in the range of 89.3 to 95.3%; at P-gp (MDR1) [1] (pH 7, Recovery, pHext 7 (ISO-pH)), 87.8 to 93.1%. Besides, the ER result at human P-gp [2] (pHext 6 (ISO-pH)) is “one”; at human P-gp [2] (pHext 7 (ISO-pH)), 6.5; on human P-gp [2] (pHext 7 (ISO-pH), listed as doxorubicin) it was more than 2.
For the compound `CN(C)C(=O)C(CCN1CCC(O)(c2ccc(Cl)cc2)CC1)(c1ccccc1)c1ccccc1` [Loperamide, loperamide], at human P-gp [3], the “mean ERs” value was “greater than two”. Further, at P-gp (MDR1) [4] (setting [5]), the efflux ratio was 2.7 ± 0.73, the Papp A→B was 467 ± 50.3 nm/s, the Papp B→A came to 1260 ± 278 nm/s and the recovery was 75 to 88.1%. Besides, on P-gp (MDR1) [4] (setting [6]), the efflux ratio was determined as 2.8 ± 0.87, the apical-to-basolateral permeability (Papp A→B) is 98 ± 28.4 nm/s, the basolateral-to-apical permeability (Papp B→A) stood at 292 ± 33.1 nm/s and the recovery was in the range of 62.3 to 81.3%. Moreover, on P-gp (MDR1) [4] (setting [7]), the efflux ratio came to 3.2 ± 0.91, the Papp A→B was 56.5 ± 4.2 nm/s, the apparent permeability from basolateral to apical (Papp B→A) amounted to 159 ± 42.4 nm/s and the recovery fell in the range of 69.2 to 86.1%.
On to `C=C[C@H]1C[N@@]2CC[C@H]1C[C@@H]2[C@@H](O)c1ccnc2ccc(OC)cc12` [Quinidine, quinidine], for which the “mean ERs” value on human P-gp [2] (over the conditions HPS, LPS, HPU, pH 7.4) is listed as “greater than two”.
